# In ChEMBL document CHEMBL4765389, “Antimicrobial and anti-inflammatory activities of short dodecapeptides derived from duck cathelicidin: Plausible mechanism of bactericidal action and endotoxin neutralization” (Eur J Med Chem, 2020):
# Activity calls are given as the source filed them. No cut-off for these calls is given here.
# How the values were obtained:
# Erythrocyte [1] = assay: Hemolytic activity in sheep RBC assessed as reduction in hemoglobin at 256 uM incubated for 1 hr; format: ADME, cell-based, Ovis aries
# [2] = Cytotoxicity against mouse RAW264.7 cells assessed as reduction in cell viability at 20 uM incubated for 24 hrs by MTT assay; format: cell-based; settings: read-out: INH
# [3] = Cytotoxicity against mouse NIH/3T3 cells assessed as reduction in cell viability at 20 uM incubated for 24 hrs by MTT assay; format: cell-based, NIH3T3; settings: NIH/3T3 cells, read-out: INH
# [4] = system: Staphylococcus epidermidis; assay: Antibacterial activity against Staphylococcus epidermidis KCTC 1917 assessed as reduction in bacterial growth incubated for 24 hrs by CLSI based broth dilution method; format: functional; settings: read-out: MIC100
# Bacillus subtilis = assay: Antibacterial activity against Bacillus subtilis KCTC 3068 assessed as reduction in bacterial growth incubated for 24 hrs by CLSI based broth dilution method; format: functional; settings: read-out: MIC100
# Staphylococcus aureus [5] = assay: Antibacterial activity against methicillin-resistant Staphylococcus aureus CCARM 3089 assessed as reduction in bacterial growth incubated for 24 hrs by CLSI based broth dilution method; format: functional; settings: read-out: MIC100
# Staphylococcus aureus [6] = assay: Antibacterial activity against methicillin-resistant Staphylococcus aureus CCARM 3090 assessed as reduction in bacterial growth incubated for 24 hrs by CLSI based broth dilution method; format: functional; settings: read-out: MIC100
# Escherichia coli [7] = assay: Antibacterial activity against Escherichia coli KCTC 1682 assessed as reduction in bacterial growth incubated for 24 hrs by CLSI based broth dilution method; format: functional; settings: read-out: MIC100
# Pseudomonas aeruginosa = assay: Antibacterial activity against Pseudomonas aeruginosa KCTC 1637 assessed as reduction in bacterial growth incubated for 24 hrs by CLSI based broth dilution method; format: functional; settings: read-out: MIC100
# [8] = Antibacterial activity against multidrug-resistant Pseudomonas aeruginosa CCARM 2095 assessed as reduction in bacterial growth incubated for 24 hrs by CLSI based broth dilution method; format: functional; settings: read-out: MIC100
# Candida albicans = assay: Antifungal activity against Candida albicans KCTC 7121 assessed as reduction in fungal growth incubated for 24 hrs by CLSI based broth dilution method; format: functional; settings: read-out: MIC100
# Erythrocyte [9] = assay: Hemolytic activity in sheep RBC assessed as reduction in hemoglobin incubated for 1 hr; format: ADME, cell-based, Ovis aries
# Bacteria = assay: Antibacterial activity against Gram negative bacteria assessed as reduction in bacterial growth incubated for 24 hrs by CLSI based broth dilution method; format: functional; settings: read-out: MIC100
# Saccharomyces cerevisiae = assay: Antifungal activity against yeast assessed as reduction in fungal growth incubated for 24 hrs by CLSI based broth dilution method; format: functional; settings: read-out: MIC100
# [10] = Therapeutic index, ratio of HC10 for sheep RBC to geometric mean MIC for gram positive bacteria; format: toxicity; settings: sheep red blood cells, read-out: TI
# [11] = Therapeutic index, ratio of HC10 for sheep RBC to geometric mean MIC for yeast; format: toxicity; settings: sheep red blood cells, read-out: TI
# RAW264.7 [12] = assay: Antiinflammatory activity against mouse RAW264.7 cells assessed as reduction in LPS-induced TNFalpha level at 10 uM incubated for 24 hrs by […] relative to control; format: functional
# RAW264.7 [13] = assay: Antiinflammatory activity against mouse RAW264.7 cells assessed as reduction in LPS-induced iNOS mRNA expression at 5 uM incubated for 6 hrs by qRT-PCR analysis; format: functional, cell-based
# RAW264.7 [14] = assay: Antiinflammatory activity against mouse RAW264.7 cells assessed as reduction in LPS-induced TNFalpha mRNA expression at 10 uM incubated for 3 hrs by qRT-PCR analysis; format: functional, cell-based
# Escherichia coli [15] = assay: Antibacterial activity against Escherichia coli KCTC 1682 assessed as reduction in bacterial growth incubated for 24 hrs in presence of 150 mM NaCl by CLSI based broth dilution method; format: functional; settings: read-out: MIC100
# Escherichia coli [16] = assay: Antibacterial activity against Escherichia coli KCTC 1682 assessed as reduction in bacterial growth incubated for 24 hrs in presence of 6 uM NH4Cl by CLSI based broth dilution method; format: functional; settings: read-out: MIC100
# Escherichia coli [17] = assay: Antibacterial activity against Escherichia coli KCTC 1682 assessed as reduction in bacterial growth incubated for 24 hrs in presence of 2.5 mM CaCl2 by CLSI based broth dilution method; format: functional; settings: read-out: MIC100
# Escherichia coli [18] = assay: Antibacterial activity against Escherichia coli KCTC 1682 assessed as reduction in bacterial growth incubated for 24 hrs in presence of 20 % serum by CLSI based broth dilution method; format: functional; settings: read-out: MIC100
# Staphylococcus aureus [19] = assay: Antibacterial activity against Staphylococcus aureus KCTC 1621 assessed as reduction in bacterial growth incubated for 24 hrs in presence of 2.5 mM CaCl2 by CLSI based broth dilution method; format: functional; settings: read-out: MIC100
# Staphylococcus aureus [20] = assay: Antibacterial activity against Staphylococcus aureus KCTC 1621 assessed as reduction in bacterial growth incubated for 24 hrs in presence of 20 % serum by CLSI based broth dilution method; format: functional; settings: read-out: MIC100
# Staphylococcus aureus [21] = assay: Antibacterial activity against methicillin-resistant Staphylococcus aureus CCARM 3090 assessed as reduction in bacterial growth incubated for 24 hrs in presence of chloramphenicol by CLSI based broth dilution method; format: functional; settings: read-out: MIC100
# Staphylococcus aureus [22] = assay: Antibacterial activity against methicillin-resistant Staphylococcus aureus CCARM 3090 assessed as reduction in bacterial growth incubated for 24 hrs in presence of ciprofloxacin by CLSI based broth dilution method; format: functional; settings: read-out: MIC100
# Staphylococcus aureus [23] = assay: Antibacterial activity against methicillin-resistant Staphylococcus aureus CCARM 3090 assessed as fractional inhibitory concentration incubated for 24 hrs in presence of oxacillin by CLSI based broth dilution method; format: functional
# Staphylococcus aureus [24] = assay: Antibacterial activity against methicillin-resistant Staphylococcus aureus CCARM 3090 assessed as fractional inhibitory concentration index incubated for 24 hrs in presence of chloramphenicol by CLSI based broth dilution method; format: functional
# Staphylococcus aureus [25] = assay: Antibacterial activity against methicillin-resistant Staphylococcus aureus CCARM 3090 assessed as fractional inhibitory concentration index incubated for 24 hrs in presence of ciprofloxacin by CLSI based broth dilution method; format: functional
# Staphylococcus aureus [26] = assay: Antibacterial activity against methicillin-resistant Staphylococcus aureus CCARM 3090 assessed as fractional inhibitory concentration index incubated for 24 hrs in presence of oxacillin by CLSI based broth dilution method; format: functional
# [27] = Antibacterial activity against multidrug-resistant Pseudomonas aeruginosa CCARM 2095 assessed as fractional inhibitory concentration incubated for 24 hrs in presence of chloramphenicol by CLSI based broth dilution method; format: functional
# [28] = Antibacterial activity against multidrug-resistant Pseudomonas aeruginosa CCARM 2095 assessed as fractional inhibitory concentration index incubated for 24 hrs in presence of chloramphenicol by CLSI based broth dilution method; format: functional
# Cell membrane = assay: Induction of cell membrane permeability in Staphylococcus aureus KCTC 1621 assessed as cytoplasmic membrane depolarization at 16 uM by SYTOX dye based fluorescence assay; format: subcellular
# Lipopolysaccharide (LPS) [29] = assay: Displacement of BODIPY-TR cadaverine from Escherichia coli O111:B4 LPS at 20 uM measured for 100 sec by spectrofluorometry relative to control
# RAW264.7 [30] = assay: Antiinflammatory activity in mouse RAW264.7 cells assessed as suppression of LPS binding by measuring LPS-FITC aggregation at 10 uM pretreated with LPS for 1 hr followed by compound addition and measured after 30 mins by flowcytometry analysis (reference value: 67.93 %); format: functional; settings: 0.5 h
# [31] = Retention time of the compound by RP-HPLC method; format: physicochemical
# Lipopolysaccharide (LPS) [32] = assay: Displacement of BODIPY-TR cadaverine from Escherichia coli O111:B4 LPS at 10 uM measured for 100 sec by spectrofluorometry relative to control
Substance,Activity (Erythrocyte [1]),"cytotoxicity at 24 h, 20 µM [2] [%]","cytotoxicity at 24 h, 20 µM [3] [%]",MIC [4] [µM],MIC (Bacillus subtilis) [µM],MIC (Staphylococcus aureus [5]) [µM],MIC (Staphylococcus aureus [6]) [µM],MIC (Escherichia coli [7]) [µM],MIC (Pseudomonas aeruginosa) [µM],MIC [8] [µM],MIC (Candida albicans) [µM],HC10 (Erythrocyte [9]) [µM],MIC (Bacteria) [µM],MIC (Saccharomyces cerevisiae) [µM],selectivity ratio [10],selectivity ratio [11],inhibition at 10 µM (RAW264.7 [12]) [%],inhibition (RAW264.7 [13]),inhibition (RAW264.7 [14]),MIC (Escherichia coli [15]) [µM],other results
H-LIKKIYRKWKRW-NH2,Non-Toxic,< 10,< 10,4,2,16,8,8,2,8,4,> 256,5.6,6,71.1,853,47.3,Active,Active,4,MIC (Escherichia coli [16]): 2 µM; MIC (Escherichia coli [17]): 8 µM; MIC (Escherichia coli [18]): 8 µM; MIC (Staphylococcus aureus [19]): 4 µM; MIC (Staphylococcus aureus [20]): 4 µM; MIC (Staphylococcus aureus [21]): 32 µM; MIC (Staphylococcus aureus [22]): 128 µM; FIC (Staphylococcus aureus [23]): 0.125; fractional inhibitory concentration index (FICI) (Staphylococcus aureus [24]): 0.5; fractional inhibitory concentration index (FICI) (Staphylococcus aureus [25]): 0.5; fractional inhibitory concentration index (FICI) (Staphylococcus aureus [26]): 0.375; FIC [27]: 0.0625; fractional inhibitory concentration index (FICI) [28]: 0.313; Activity (Cell membrane): inactive; Activity (Lipopolysaccharide (LPS) [29]): 68%; Activity (RAW264.7 [30]): 32.51%; Retention_time [31]: 16.2 min
H-LWKKIYRKWKRW-NH2,Non-Toxic,< 10,< 10,4,2,16,8,4,2,8,4,> 256,4,6,753,853,65,Active,Active,4,MIC (Escherichia coli [16]): 2 µM; MIC (Escherichia coli [17]): 4 µM; MIC (Escherichia coli [18]): 8 µM; MIC (Staphylococcus aureus [19]): 4 µM; MIC (Staphylococcus aureus [20]): 4 µM; MIC (Staphylococcus aureus [21]): 32 µM; MIC (Staphylococcus aureus [22]): 64 µM; FIC (Staphylococcus aureus [23]): 0.125; fractional inhibitory concentration index (FICI) (Staphylococcus aureus [24]): 0.5; fractional inhibitory concentration index (FICI) (Staphylococcus aureus [25]): 0.375; fractional inhibitory concentration index (FICI) (Staphylococcus aureus [26]): 0.375; FIC [27]: 0.125; fractional inhibitory concentration index (FICI) [28]: 0.375; Activity (Cell membrane): inactive; Activity (Lipopolysaccharide (LPS) [32]): 75%; Activity (RAW264.7 [30]): 17.64%; Retention_time [31]: 17.3 min
